In ChEMBL document CHEMBL1201862, “PubChem BioAssay data set” (2004):
Calls of active or inactive are those of the source.

Columns and labels:
Cytochrome P450 3A4 = Cytochrome P450 3A4 (Homo sapiens, UniProt P08684);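 further: CYP3A4 tested as one member of a cytochrome P450 panel screen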
Genome polyprotein = Genome polyprotein (dengue virus type 2, UniProt P29990); assay: Dengue-2 NS5 methyltransferase inhibitors, primary screen, biochemical, confirmation dose response (AID 588689); assay type: functional
[1] = biological target: Voltage-dependent T-type calcium channel subunit alpha-1H (Homo sapiens, UniProt O95180); assay type: functional;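 further: channel activity triggered by adding a high calcium stimulation buffer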
[2] = Luminescence Cell-Based Dose Response HTS to Identify Inhibitors of 5'UTR Stem-Loop Driven Prion Protein mRNA Translation in H4 Neuroglioblastoma Cells. [Related pubchem assays: 1827 (Project Summary), 1813 (Primary HTS)]; assay type: functional
cells = assay type: functional
[3] = inhibitors of intracellular T. cruzi replication, confirmation, NIH3T3 host cells, beta-gal luminescence (AID 2044); assay type: functional, cell-based;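 further: intracellular parasites grown in NIH/3T3 mouse fibroblasts as host cells; luminescent beta-galactosidase reporter signal from transgenic T. cruzi replicating inside host cells; inhibitors lower the luminescence signal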
[4] = biological target: T1, Short transient receptor potential channel 4 (Mus musculus, UniProt Q9QUQ5); assay: mouse TRPC4 channel activators, dose response, cell-based, HEK293 TRPC4/mu-opioid, Fluo-4 calcium (AID 434937); assay type: functional
T1 sequence (Q9QUQ5 whole entry): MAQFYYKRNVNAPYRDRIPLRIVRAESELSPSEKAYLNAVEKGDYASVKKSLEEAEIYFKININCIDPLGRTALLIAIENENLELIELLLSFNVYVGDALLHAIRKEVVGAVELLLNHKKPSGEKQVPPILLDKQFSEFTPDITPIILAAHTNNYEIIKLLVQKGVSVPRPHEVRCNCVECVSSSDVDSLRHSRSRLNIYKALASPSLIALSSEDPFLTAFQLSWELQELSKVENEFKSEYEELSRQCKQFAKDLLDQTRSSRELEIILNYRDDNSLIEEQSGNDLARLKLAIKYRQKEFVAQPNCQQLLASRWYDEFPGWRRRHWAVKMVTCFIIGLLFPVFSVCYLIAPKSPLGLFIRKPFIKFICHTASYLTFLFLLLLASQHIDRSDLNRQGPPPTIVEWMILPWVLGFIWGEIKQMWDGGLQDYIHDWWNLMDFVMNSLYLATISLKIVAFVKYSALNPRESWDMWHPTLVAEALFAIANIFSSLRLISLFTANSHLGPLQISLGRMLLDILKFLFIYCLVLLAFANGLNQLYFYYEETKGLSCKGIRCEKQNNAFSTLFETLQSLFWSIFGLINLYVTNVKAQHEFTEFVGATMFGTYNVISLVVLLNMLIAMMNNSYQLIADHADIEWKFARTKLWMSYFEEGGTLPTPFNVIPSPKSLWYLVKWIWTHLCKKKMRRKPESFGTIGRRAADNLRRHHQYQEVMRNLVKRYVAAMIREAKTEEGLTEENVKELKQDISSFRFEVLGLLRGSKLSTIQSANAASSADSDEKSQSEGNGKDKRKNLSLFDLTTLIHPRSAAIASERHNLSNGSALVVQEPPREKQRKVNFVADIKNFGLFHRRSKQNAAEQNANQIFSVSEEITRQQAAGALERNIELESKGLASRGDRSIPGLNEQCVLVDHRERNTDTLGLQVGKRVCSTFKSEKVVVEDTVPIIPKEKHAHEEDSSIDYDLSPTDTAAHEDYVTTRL

[5] = cytotoxicity toward NIH3T3 fibroblasts, dose response, counter-screen, cell-based, ATP luminescence, mouse fibroblasts (AID 2010); assay type: functional;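 further: cells exposed to compound for about 90 hours before reading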
[6] = inhibitors of firefly luciferase expression or activity, dose response, H4 neuroglioma cells, luminescence (AID 1990); assay type: functional, cell-based
[7] = THP-1 cell cytotoxicity, dose response, cytotoxicity control for non-replicating M. tuberculosis project (AID 489025); assay type: functional
[8] = inhibitors of SNCA 5'UTR-driven reporter translation, confirmation, H4 neuroglioma cells, luminescence (AID 1988); assay type: functional, cell-based
[9] = biological target: Peroxisome proliferator-activated receptor gamma/Nuclear receptor coactivator 3 (Homo sapiens, UniProt P37231); assay type: functional;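 further: agonist potency for raising coactivator recruitment to the receptor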
[10] = biological target: Peroxisome proliferator-activated receptor gamma/Nuclear receptor coactivator 1 (Homo sapiens, UniProt P37231); assay type: functional;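 further: agonist potency as compounds enhance coactivator SRC-1 recruitment to PPARgamma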
[11] = biological target: Peroxisome proliferator-activated receptor gamma/Nuclear receptor coactivator 2 (Homo sapiens, UniProt P37231); assay type: functional;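 further: agonist potency for raising coactivator recruitment to the receptor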
Protein skinhead-1 = biological target: T2, Protein skinhead-1 (Caenorhabditis elegans, UniProt P34707); assay type: functional
T2 sequence (P34707 whole entry): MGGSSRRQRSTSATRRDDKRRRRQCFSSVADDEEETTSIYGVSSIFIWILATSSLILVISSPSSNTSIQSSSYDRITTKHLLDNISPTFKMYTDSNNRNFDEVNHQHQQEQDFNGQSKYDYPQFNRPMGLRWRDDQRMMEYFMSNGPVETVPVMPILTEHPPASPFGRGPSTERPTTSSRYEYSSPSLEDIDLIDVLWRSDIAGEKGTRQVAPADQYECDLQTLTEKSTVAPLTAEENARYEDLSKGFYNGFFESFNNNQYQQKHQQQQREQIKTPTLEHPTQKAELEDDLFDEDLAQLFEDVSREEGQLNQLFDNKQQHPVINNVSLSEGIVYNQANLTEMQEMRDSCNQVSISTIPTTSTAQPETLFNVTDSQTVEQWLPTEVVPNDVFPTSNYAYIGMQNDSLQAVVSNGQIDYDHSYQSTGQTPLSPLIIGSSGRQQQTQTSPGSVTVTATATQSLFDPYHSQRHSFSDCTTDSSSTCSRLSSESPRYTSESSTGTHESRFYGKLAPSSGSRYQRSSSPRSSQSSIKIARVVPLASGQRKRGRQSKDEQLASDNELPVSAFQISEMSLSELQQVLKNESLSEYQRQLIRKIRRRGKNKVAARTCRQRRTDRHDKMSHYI

H9c2 = assay: cells; assay type: functional, cell-based; settings: Rattus norvegicus, H9c2, Myocardium;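 further: confirmatory concentration-response retest of ultra-high-throughput screening hits for modulation of myocardial damage; cell death induced by hydrogen peroxide oxidative stress; compound pretreatment for 60 min then peroxide exposure for 2 h; potency is for protecting the cells against peroxide damage rather than for killing them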
[12] = biological target: T3, Corticotropin-releasing factor receptor 2/Corticotropin-releasing factor-binding protein (Homo sapiens, UniProt P24387+Q13324); assay: Dose Response confirmation of uHTS hits for small molecule antagonists of the CRF-binding protein and CRF-R2 receptor complex.; assay type: functional; settings: read-out: IC50_Mean
T3 sequence (Q13324 whole entry): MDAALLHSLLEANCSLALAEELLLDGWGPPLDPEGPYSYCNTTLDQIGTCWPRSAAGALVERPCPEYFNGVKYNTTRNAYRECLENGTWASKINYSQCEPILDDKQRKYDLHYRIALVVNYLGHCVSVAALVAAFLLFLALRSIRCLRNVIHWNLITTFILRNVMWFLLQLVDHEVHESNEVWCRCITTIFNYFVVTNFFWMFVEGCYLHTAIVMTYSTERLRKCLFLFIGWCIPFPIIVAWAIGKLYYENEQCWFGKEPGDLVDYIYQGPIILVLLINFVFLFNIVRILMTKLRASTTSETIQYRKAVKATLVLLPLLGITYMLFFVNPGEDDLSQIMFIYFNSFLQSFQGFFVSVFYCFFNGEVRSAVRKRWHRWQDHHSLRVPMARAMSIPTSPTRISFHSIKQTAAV
T3 sequence (P24387 whole entry): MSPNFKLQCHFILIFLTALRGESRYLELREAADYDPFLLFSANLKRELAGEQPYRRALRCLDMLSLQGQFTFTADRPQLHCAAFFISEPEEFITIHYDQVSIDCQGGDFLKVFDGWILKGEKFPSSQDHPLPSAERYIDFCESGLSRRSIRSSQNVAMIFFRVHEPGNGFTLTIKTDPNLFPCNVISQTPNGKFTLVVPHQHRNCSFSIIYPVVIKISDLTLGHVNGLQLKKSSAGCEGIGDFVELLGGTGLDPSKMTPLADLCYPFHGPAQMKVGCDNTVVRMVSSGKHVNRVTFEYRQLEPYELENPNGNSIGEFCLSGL

[13] = biological target: T3, Corticotropin-releasing factor receptor 2/Corticotropin-releasing factor-binding protein; assay: activators of CRF receptor 2 with binding protein – uHTS hits, confirmation (AID 602473); assay type: functional; settings: read-out: EC50_Mean
HEK293 [14] = assay: NOD1 signaling inhibitors, primary screen, cell-based, luminescence, uHTS (AID 1578); assay type: functional; settings: Homo sapiens
HEK293 [15] = assay: NOD2 signaling inhibitors in MDP-stimulated cells, cell-based, uHTS, luminescence (AID 2001); assay type: functional; settings: Homo sapiens
HEK293 [16] = assay: cells; assay type: functional, cell-based; settings: Homo sapiens
[17] = growth suppression of PTEN-null colon cells, dose response, cell-based, HCT116 PTEN knockout (AID 1047); assay type: functional;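 further: HCT116 colon tumor cells with PTEN knocked out; cells exposed to compound for 60 hours before readout; potency for loss of cell viability measured by luminescence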
[18] = growth suppression of beta-catenin-knockout colon cells, dose response, cell-based, HCT116, human colon tumor (AID 1045); assay type: functional;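 further: HCT116 colon tumor cells with beta catenin knocked out; cells exposed to compound for 60 hours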
[19] = Luminescence Cell-Based Dose Retest to Confirm Inhibitors of Cancer Stem Cells. [Related pubchem assays (depositor defined):AID2717, AID2721]; assay type: functional; settings: Homo sapiens
Cytochrome P450 1A2 = biological target: T4, Cytochrome P450 1A2 (Homo sapiens, UniProt P05177);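 further: PubChem cytochrome P450 panel assay, CYP1A2 panel member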
T4 sequence (P05177 whole entry): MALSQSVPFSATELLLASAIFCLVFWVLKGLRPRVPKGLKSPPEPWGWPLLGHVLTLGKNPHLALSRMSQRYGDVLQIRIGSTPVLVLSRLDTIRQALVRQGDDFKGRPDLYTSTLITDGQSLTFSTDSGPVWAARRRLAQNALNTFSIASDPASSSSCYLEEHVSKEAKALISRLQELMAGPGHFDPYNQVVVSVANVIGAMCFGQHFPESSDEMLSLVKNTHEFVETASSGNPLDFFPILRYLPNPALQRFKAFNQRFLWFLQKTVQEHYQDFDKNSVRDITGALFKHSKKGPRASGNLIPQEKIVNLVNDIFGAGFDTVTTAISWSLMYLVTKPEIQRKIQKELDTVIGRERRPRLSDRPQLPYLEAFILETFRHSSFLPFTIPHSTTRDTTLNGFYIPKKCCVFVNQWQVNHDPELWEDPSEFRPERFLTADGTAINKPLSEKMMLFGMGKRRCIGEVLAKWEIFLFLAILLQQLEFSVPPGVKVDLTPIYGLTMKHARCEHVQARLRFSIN

Sequence of Peroxisome proliferator-activated receptor gamma/Nuclear receptor coactivator 1 (P37231 whole entry): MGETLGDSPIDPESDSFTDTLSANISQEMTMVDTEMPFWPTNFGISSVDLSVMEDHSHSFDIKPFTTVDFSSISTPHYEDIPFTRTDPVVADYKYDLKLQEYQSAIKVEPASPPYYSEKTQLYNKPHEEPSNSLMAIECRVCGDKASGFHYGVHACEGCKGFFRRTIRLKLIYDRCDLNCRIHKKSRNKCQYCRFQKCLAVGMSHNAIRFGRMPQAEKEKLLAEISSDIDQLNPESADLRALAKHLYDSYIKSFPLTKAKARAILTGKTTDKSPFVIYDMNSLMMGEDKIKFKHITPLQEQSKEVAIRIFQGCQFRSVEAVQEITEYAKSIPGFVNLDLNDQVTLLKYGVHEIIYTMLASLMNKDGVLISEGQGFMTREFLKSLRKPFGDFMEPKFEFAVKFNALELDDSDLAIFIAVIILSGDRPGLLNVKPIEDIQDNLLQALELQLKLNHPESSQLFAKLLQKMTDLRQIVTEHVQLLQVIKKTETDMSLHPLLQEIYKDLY
Sequence of Peroxisome proliferator-activated receptor gamma/Nuclear receptor coactivator 1 (Q15788 whole entry, further chain): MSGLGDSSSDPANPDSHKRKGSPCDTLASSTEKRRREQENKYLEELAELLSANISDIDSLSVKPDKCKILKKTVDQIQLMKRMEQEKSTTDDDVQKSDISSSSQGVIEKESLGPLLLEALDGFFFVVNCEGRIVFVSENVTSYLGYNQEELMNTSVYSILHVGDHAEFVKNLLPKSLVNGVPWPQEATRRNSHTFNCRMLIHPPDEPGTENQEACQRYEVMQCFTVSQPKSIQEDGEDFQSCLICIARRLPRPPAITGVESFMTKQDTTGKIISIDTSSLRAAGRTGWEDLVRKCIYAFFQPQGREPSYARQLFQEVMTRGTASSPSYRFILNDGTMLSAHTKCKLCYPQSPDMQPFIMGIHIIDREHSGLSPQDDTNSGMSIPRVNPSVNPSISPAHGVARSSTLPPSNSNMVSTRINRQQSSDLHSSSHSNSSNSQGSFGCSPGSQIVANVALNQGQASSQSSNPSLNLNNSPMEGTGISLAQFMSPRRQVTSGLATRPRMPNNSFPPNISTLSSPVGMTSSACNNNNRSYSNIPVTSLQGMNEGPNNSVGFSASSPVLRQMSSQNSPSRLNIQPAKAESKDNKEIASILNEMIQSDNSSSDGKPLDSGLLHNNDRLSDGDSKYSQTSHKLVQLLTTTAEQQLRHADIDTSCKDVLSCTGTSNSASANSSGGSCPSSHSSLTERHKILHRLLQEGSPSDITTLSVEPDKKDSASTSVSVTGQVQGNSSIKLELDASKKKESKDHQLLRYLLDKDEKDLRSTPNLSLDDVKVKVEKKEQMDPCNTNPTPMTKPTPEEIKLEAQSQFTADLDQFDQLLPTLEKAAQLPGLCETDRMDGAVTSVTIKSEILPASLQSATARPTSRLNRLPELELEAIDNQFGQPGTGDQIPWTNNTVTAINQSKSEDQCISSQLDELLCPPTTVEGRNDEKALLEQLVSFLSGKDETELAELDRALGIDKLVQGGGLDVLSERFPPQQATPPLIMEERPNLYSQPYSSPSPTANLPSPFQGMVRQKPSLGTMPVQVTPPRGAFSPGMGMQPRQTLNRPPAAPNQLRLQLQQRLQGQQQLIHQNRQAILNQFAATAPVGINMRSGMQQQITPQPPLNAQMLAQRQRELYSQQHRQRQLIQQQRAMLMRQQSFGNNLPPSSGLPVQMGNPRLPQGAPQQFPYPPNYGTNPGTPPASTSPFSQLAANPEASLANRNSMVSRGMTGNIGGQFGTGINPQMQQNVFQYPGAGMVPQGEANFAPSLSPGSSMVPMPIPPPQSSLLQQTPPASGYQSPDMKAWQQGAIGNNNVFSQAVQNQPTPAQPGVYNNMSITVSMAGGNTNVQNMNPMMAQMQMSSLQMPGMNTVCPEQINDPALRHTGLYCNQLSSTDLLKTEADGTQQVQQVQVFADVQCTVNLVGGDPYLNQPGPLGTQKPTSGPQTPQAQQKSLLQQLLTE
Sequence of Peroxisome proliferator-activated receptor gamma/Nuclear receptor coactivator 3 (P37231 whole entry): as the sequence (P37231 whole entry) above
Sequence of Peroxisome proliferator-activated receptor gamma/Nuclear receptor coactivator 3 (Q9Y6Q9 whole entry, further chain): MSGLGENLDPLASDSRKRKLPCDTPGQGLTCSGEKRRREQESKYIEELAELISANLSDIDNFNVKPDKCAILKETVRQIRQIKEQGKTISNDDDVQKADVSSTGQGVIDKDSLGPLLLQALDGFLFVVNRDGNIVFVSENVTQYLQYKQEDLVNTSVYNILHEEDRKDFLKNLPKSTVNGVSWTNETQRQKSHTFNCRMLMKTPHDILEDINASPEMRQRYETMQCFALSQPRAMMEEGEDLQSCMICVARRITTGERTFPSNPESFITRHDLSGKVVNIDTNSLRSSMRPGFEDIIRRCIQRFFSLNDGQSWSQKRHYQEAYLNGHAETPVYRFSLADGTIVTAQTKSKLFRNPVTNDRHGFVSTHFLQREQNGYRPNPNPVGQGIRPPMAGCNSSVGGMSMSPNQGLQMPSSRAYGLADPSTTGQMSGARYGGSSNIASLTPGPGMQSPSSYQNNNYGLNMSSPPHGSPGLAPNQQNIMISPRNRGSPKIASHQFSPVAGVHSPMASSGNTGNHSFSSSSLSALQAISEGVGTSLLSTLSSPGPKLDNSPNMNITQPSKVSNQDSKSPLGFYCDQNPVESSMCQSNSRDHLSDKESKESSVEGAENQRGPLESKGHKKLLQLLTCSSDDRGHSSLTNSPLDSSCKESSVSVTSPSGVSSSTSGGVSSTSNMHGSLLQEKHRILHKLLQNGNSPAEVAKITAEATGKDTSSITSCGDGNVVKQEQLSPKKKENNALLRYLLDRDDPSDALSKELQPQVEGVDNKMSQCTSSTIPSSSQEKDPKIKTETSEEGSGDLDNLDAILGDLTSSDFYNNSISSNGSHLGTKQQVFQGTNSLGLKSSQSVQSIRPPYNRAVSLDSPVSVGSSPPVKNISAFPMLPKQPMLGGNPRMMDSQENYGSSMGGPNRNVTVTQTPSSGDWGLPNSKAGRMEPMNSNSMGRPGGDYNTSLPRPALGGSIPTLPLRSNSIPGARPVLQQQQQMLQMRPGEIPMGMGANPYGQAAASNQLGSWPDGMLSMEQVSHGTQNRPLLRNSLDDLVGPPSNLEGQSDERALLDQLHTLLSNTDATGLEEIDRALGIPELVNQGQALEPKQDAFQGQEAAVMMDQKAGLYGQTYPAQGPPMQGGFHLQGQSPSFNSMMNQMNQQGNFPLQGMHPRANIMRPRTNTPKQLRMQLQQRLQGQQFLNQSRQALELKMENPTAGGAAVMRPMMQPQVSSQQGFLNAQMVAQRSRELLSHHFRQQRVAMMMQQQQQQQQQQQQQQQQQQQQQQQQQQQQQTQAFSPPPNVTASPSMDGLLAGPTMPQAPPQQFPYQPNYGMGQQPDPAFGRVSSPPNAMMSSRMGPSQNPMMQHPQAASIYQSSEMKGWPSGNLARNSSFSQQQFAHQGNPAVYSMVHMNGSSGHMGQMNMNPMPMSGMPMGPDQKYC
Sequence of Genome polyprotein (P29990 2492-3391 limits assumed): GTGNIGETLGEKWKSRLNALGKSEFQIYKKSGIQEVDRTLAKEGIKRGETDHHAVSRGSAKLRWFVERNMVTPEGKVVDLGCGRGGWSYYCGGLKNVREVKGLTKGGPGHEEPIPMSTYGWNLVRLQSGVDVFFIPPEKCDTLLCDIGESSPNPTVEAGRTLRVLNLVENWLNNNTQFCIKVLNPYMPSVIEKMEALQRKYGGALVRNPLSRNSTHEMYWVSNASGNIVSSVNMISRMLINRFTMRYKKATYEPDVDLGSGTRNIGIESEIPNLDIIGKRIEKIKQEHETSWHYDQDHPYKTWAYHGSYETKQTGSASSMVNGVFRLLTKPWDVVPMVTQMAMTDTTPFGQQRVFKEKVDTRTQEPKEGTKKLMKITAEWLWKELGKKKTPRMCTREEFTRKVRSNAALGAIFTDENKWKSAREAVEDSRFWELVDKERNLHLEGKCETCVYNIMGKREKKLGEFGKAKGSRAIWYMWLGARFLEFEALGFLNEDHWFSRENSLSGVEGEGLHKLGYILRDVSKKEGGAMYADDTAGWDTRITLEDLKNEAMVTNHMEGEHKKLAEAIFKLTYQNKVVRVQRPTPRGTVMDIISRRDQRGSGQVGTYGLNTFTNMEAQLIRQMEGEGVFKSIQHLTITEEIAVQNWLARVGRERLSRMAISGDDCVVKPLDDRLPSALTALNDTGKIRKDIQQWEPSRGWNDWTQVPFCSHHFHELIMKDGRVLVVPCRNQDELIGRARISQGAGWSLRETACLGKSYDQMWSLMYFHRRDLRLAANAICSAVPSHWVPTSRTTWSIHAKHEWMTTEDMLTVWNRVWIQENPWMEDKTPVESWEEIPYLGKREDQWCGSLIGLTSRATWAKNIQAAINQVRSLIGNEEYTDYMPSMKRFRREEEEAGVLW

CN1C(=O)C(=Cc2ccccc2Oc2ccc(Cl)c(F)c2)C(=O)N(C)C1=O
AC50 (Cytochrome P450 3A4): 14.1 µM (inconclusive)
IC50 (Genome polyprotein): 51.9 µM (active)

COc1ccccc1NC(=O)c1nnn(Cc2ccccc2)c1NC(=O)C(F)(F)F
EC50 [1]: 3.86 µM (active)

Cc1cc(OCCCCn2ccnc2)cc(C)c1Cl
EC50 [2]: > 120 µM (not active)
IC50 (cells): 15.8 µM (active)
EC50 [3]: 0.145 µM (active)
EC50 [4]: 5.31 µM (active)
EC50 [5]: > 60 µM (not active)
EC50 [6]: > 120 µM (not active)
CC50 [7]: 33.2 µM (active)
EC50 [8]: 16 µM (active)

COC(=O)c1cnn(-c2nc3c(C)cccc3s2)c1C
EC50 [9]: 67 µM (not active)
EC50 [10]: 54.5 µM (not active)
EC50 [11]: 30 µM (not active)

COc1ccccc1C(=O)Nc1ccc(Br)c2cccnc12
IC50 (Protein skinhead-1): > 100 µM (inactive)

CCN(CC)CCn1c(NC(=O)c2ccc(Cl)cc2)nc2ccccc21
EC50 [9]: > 79.4 µM (not active)
EC50 [10]: > 79.4 µM (not active)
IC50 (H9c2): > 79 µM (inactive)
EC50 [11]: > 79.4 µM (not active)

Cn1c(=O)n(C)c2cc(/C=C(/C#N)C(=O)NCc3ccco3)ccc21
IC50 (Protein skinhead-1): > 100 µM (inactive)

Cc1ccc(NS(=O)(=O)c2cccs2)cc1S(=O)(=O)N1CCCCCC1
IC50 [12]: > 47.1 µM (inactive)
EC50 [9]: > 79.4 µM (not active)
EC50 [13]: > 53 µM (inactive)
EC50 [10]: > 79.4 µM (not active)
EC50 [11]: > 79.4 µM (not active)

COc1cc(/C=C2/CCc3ccccc3C2=O)cc(OC)c1OC
EC50 (HEK293 [14]): > 20 µM (inactive)
IC50 (HEK293 [15]): 9.24 µM (active)
IC50 (HEK293 [16]): > 20 µM (inactive)

COc1ccccc1N(O)C1CC(=O)N(c2ccc(Br)cc2)C1=O (stereo unspecified)
IC50 (Genome polyprotein): 34.7 µM (active)

C/C(CC(c1ccccc1)c1c(O)oc2ccccc2c1=O)=N\Nc1ccc([N+](=O)[O-])cc1[N+](=O)[O-] (stereo unspecified)
IC50 (Genome polyprotein): 94.4 µM (active)

Cc1ccc(-c2ccc(/C=N/N3C(=O)C4C5C=CC(C6CC56)C4C3=O)o2)c([N+](=O)[O-])c1 (stereo unspecified)
EC50 [1]: 7.22 µM (active)

CCN1CCCC1CNC(=O)c1cc2c(-c3ccc(Cl)cc3)nn(C)c2s1 (stereo unspecified)
EC50 [17]: 5.98 µM (active)
EC50 [18]: 5.02 µM (active)
EC50 [9]: > 79.4 µM (not active)
EC50 [10]: > 79.4 µM (not active)
EC50 [11]: > 79.4 µM (not active)

O=C(CSc1nc2ccccc2[nH]1)Nc1ccc2c(c1)OCCO2
EC50 [1]: 13.3 µM (active)

Cc1ccc(S(=O)(=O)NC(=O)COc2ccccc2)cc1
EC50 [9]: > 79.4 µM (not active)
EC50 [10]: > 79.4 µM (not active)
EC50 [11]: > 79.4 µM (not active)

O=C(COc1ccc(Cl)cc1)NCCSCc1cccc(Cl)c1
EC50 [1]: 3.76 µM (active)

Cc1snc(S(=O)(=O)/C(C#N)=N/Nc2ccc(C(F)(F)F)cc2)c1C#N
AC50 [19]: 7.49 µM (active)
EC50 [1]: 6.48 µM (active)

O=C(Nc1ccn(Cc2ccccc2F)n1)c1ccc(COc2cc(Cl)ccc2Cl)o1
AC50 (Cytochrome P450 1A2): 3.55 µM (inconclusive)
EC50 [1]: 7.11 µM (active)

CSc1ccc(Cl)c(C(=O)NCc2ccco2)c1
IC50 (Protein skinhead-1): > 100 µM (inactive)
